Source: patent publication US20030203963A1, “Antimicrobial agent” (priority 2001, published 2003)

What was measured:
L. monocytogenes = test: Test in milk; format: cell-based, Listeria monocytogenes; conditions: 2000 ppm, TMGB010605
Protocol: 8.9 ml samples of UHT milk containing 0.5% glucose and the indicator bromocresol purple (0.01%) were prepared and sterilised by autoclaving. The pH before APP addition was pH 6.65. Appropriate stock solutions of APP batch number APP20010215 (at 138 mg/ml) were prepared and filter sterilised. 1 ml of each was added to the milk to prepare tests containing 0, 1000 and 2000 ppm APP. Tests were then inoculated with 100 μl of diluted overnight broth cultures or spore suspensions to give a final inoculum level of ca. 10^3 cfu/ml. These and uninoculated tests were incubated at 20 and 8° C. and examined daily for visible changes compared to uninoculated control.

Lactobacillus sake A10 = test: Well diffusion test; format: cell-based; conditions: 20 μl of 49.3 mg/ml (4.9%) APP sample E002012
Protocol: (§1) Seeded 10 ml agar plates of various test organisms were prepared, with inoculation of either 20 μl spore suspension or overnight broth. This gave an inoculum level of ca. 10^5-10^6 cfu/ml. After the plates had set, small wells were cut, and 20 μl of APP sample was loaded. Plates were incubated overnight at appropriate temperature and examined after 1-2 days (after which microbial growth is clearly visible) for zones of inhibition.

[1] = test system: Listeria monocytogenes S23; test: Well diffusion test; format: cell-based; conditions: 20 μl of 49.3 mg/ml (4.9%) APP sample E002012
Protocol: as §1

[2] = test system: Brochothrix thermosphacta CRA7883; test: Well diffusion test; format: cell-based; conditions: 20 μl of 49.3 mg/ml (4.9%) APP sample E002012
Protocol: as §1

[3] = test system: Br. thermosphacta CRA7883; test: Bioscreen growth inhibition test; format: cell-based, Brochothrix thermosphacta; conditions: BS010420, 72 h at 25° C., APP20010213
Protocol: (§2) For broth cultures and Bioscreen testing most bacteria were grown in Brain Heart Infusion (BHI, Oxoid, pH 7.4). Lactobacillus sake A10 was grown in de Man, Rogosa, Sharpe medium ([…], Oxoid). Yeasts were grown in Sabouraud Liquid medium (SLM, Oxoid). Most bacteria were cultured at 30° C. Lactic acid bacteria were grown on solid medium in enriched CO2 atmosphere. Clostridium species were grown in Reinforced Clostridial Medium (RCM) at 37° C. anaerobically. Brochothrix thermosphacta fungi and yeasts were grown at 25° C. Fungi were cultured on Malt Extract Agar (MEA, Oxoid).
(§3) An automated Microbiology Reader Bioscreen C was used to measure growth curves of the strains in the presence and absence of APP. The Bioscreen C measures the development of turbidity (i.e. growth) kinetically by vertical photometry in 200 wells of a honeycomb microtitre plate, simultaneously. The system consists of a Bioscreen C analyser, which is an incubator and measurement unit, integrated with a PC, software (BioLink v 5.30), printer and a ‘Honeycomb 2’ cuvette multiwell plate. Growth curve data can be analysed within the BioLink software or exported to programs such as Excel.
Broth culture media were dispensed in 270 μl volumes into the wells as directed. […] (depending on the micro-organism under investigation) with readings taken every 20 minutes after the trays were shaken. […]

L. monocytogenes 272 = test: Chicken soup trial at 20° C.; format: cell-based, Listeria monocytogenes; conditions: chicken soup at 20° C., TCSM010430, APP20010213
Source text: A local supermarket brand of cream of chicken soup was used as a model food system. 600 g packs were purchased from the local supermarket. This was a ‘fresh home-made type’ of soup that was stored in the chill cabinet, with a short shelf life. It was chosen because it is a rich, nutritious food system containing a range of food components including meat, dairy and vegetable.
Ingredients were labelled as: chicken stock (water, duck fat, chicken, salt, flavourings, yeast extracts, pork gelatine, glucose syrup, vegetable concentrate, milk protein, sugar, malto-dextrin, vegetable oil, citric acid, lactose, chicken fat), ilk, chicken (9%), cream (8%), onion, potato, vegetable oil, modified maize starch, wheat flour, lemon juice, salt, white pepper. pH 5.912. Protein: 3.3%; carbohydrate: 4.7%; fat: 7.2%; fibre: 0.2%; sodium: 0.1%
For the test the soup was mixed 2:1 in water (to facilitate sampling and mixing) and sterilised by autoclaving at 121° C. for 15 minutes. For each experiment the pH of the soup was recorded; this was between pH 5.79-5.88.
For TCS010430/20 (incubated at 20° C.) samples were prepared in 18.8 g quantities, to which 1 g of a suitable filter-sterilised APP stock solution was added and an appropriately diluted 0.2 ml inoculum. Great care was again taken to ensure homogeneous distribution of the APP and micro-organisms. […]

Stability in water = format: physicochemical; conditions: water at 24° C.
Protocol: Tests indicate that APP is stable in water at 24° C. for 2 weeks, but completely disappears after 2 months. […] At pH 11-12.5 APP has a half-life of 5 h. Since most food is acidic or neutral, the stability may therefore be improved by using APP in combination with an antioxidant such as those listed hereinbefore.

Lb. sake A10 = test: Test in cooked minced beef slurry; format: cell-based, Lactobacillus sake
Protocol: 1 kg of minced beef, purchased from the local butcher, was mixed with 1 litre of BHI. 200 g portion of this meat slurry was autoclaved. When the meat had cooled, the pH was recorded (pH 6.24), and each pot was inoculated with 2.0 ml of 10^5 spores or cells and the meat re-mixed thoroughly. Each inoculated 200 g pot was distributed as 3×50 g portions. To each pot 1 ml of SDW, 5% or 10% APP (Batch No. APP20010215) was added, and the meat was again mixed thoroughly. An initial viable count was performed, the meat was incubated at 8° C. and sampled twice weekly. The pH of the cooked minced beef slurry was 6.24.

B. cereus Campden = test: Bioscreen growth inhibition test; format: cell-based, Bacillus cereus; conditions: BS010411, 24 h at 30° C.
Protocol: as §2, §3
(§4) Broth culture media were dispensed in 270 μl volumes into the wells as directed. Serial dilutions of a filter-sterilised APP stock solution were then dispensed into the same wells, as appropriate. The wells were inoculated with 30 μl of an appropriately diluted overnight broth culture or spore suspension, to give a final inoculum level of […]. The tests were incubated in the Bioscreen C for either 24 h at 30° C., or 72 h at 25° C. (depending on the micro-organism under investigation) with readings taken every 20 minutes after the trays were shaken. After the incubation period was complete the data were exported to Excel for analysis.

B. cereus 3.046 = test: Bioscreen growth inhibition test; format: cell-based, Bacillus cereus; conditions: BS010510, 24 h at 30° C., APP20010213
Protocol: as §2, §3, §4

O=C1CC(CO)OC=C1O (stereo not shown) [APP, Ascopyrone P]
Control of growth (L. monocytogenes; milk at 8° C.): No control observed | Control of growth (L. monocytogenes; milk at 20° C.): No control observed | Sensitivity in well diffusion (zones of inhibition) (Lactobacillus sake A10): sensitive | Sensitivity in well diffusion (zones of inhibition) [1]: sensitive | Sensitivity in well diffusion (zones of inhibition) [2]: sensitive | APP level causing significant inhibition [3]: 2000 ppm | APP level causing total inhibition [3]: 4000 ppm | Effect on growth (L. monocytogenes 272; 1000 ppm): No significant effect by 1000 ppm | Effect on growth (L. monocytogenes 272; 2000 ppm): No total inhibition but reduction of growth rate only by 2000 | Completely disappears after (Stability in water): 2 months | Stable in water for (Stability in water): 2 weeks | Effect on growth (Lb. sake A10; 2000 ppm, minced beef slurry at 8° C., pH 6.24, TCM010619): No effect with 2000 ppm | No inhibition (effect on growth of target organism by 2000 ppm APP) (Lb. sake A10; Cooked minced beef slurry at 8° C. pH 6.24): Lb. sake | APP level causing significant inhibition (B. cereus Campden; APP20010213): 2000 ppm | APP level causing total inhibition (B. cereus Campden; APP20010213): 4000 ppm | APP level causing significant inhibition (B. cereus Campden; APP20010215): 2000 ppm | APP level causing total inhibition (B. cereus Campden; APP20010215): >4000 ppm | APP level causing significant inhibition (B. cereus 3.046): 2000 ppm | APP level causing total inhibition (B. cereus 3.046): 3000 ppm
